For one compound, MIC and log10cfu results are on record in ChEMBL document CHEMBL1649504, “Activity of SQ641, a capuramycin analog, in a murine model of tuberculosis” (2009).

By MIC is commonly meant the lowest concentration that inhibits growth of the organism. A higher MIC goes with weaker potency.

What all share (type): functional
Experiment [1] concerns Mycobacterium tuberculosis. Nature of the experiment: Antimycobacterial activity against Mycobacterium tuberculosis.
Experiment [2] concerns Mycobacterium tuberculosis. The experiment can be described thus: Antibacterial activity against Mycobacterium tuberculosis H37Rv infected in C57BL/6 mouse assessed as […] in lung at 50 mg/kg, ip administered 5 times per week measured post last dose. The note with it: route intraperitoneal.
For experiment [3], the system named is Mycobacterium tuberculosis. The experiment can be described thus: Antibacterial activity against Mycobacterium tuberculosis H37Rv infected in C57BL/6 mouse assessed as […] in lung at 25 mg/kg, iv administered 2 times per week measured post last dose.
The subject of experiment [4] is Mycobacterium tuberculosis. The experiment can be described thus: Antibacterial activity against Mycobacterium tuberculosis H37Rv infected in C57BL/6 mouse assessed as […] in lung at 5 mg/kg administered for 1 week via oral gavage measured post last dose.
The subject of experiment [5] is Mycobacterium tuberculosis. The experiment can be described thus: Antibacterial activity against Mycobacterium tuberculosis H37Rv infected in C57BL/6 mouse assessed as […] in lung at 100 mg/kg, ip administered 5 times per week measured post last dose. The note with it: route intraperitoneal.
Experiment [6] concerns Mycobacterium avium. Nature of the experiment: Antimycobacterial activity against Mycobacterium avium.
Experiment [7] relates to Mycobacterium tuberculosis. The experiment can be described thus: Antibacterial activity against Mycobacterium tuberculosis H37Rv infected in C57BL/6 mouse assessed as […] in lung at 50 mg/kg, iv administered 2 times per week measured post last dose.

≈ marks a conversion by molar mass, not a printed value.

Take `CCCCCCCCCC(=O)O[C@@H]1[C@H](OC)[C@@H]([C@@H](CC(N)=O)O[C@H]2OC(C(=O)N[C@H]3CCC[C@@H](C)NC3=O)=C[C@@H](O)[C@H]2O)O[C@H]1n1ccc(=O)[nH]c1=O`: the MIC in experiment [1] is 1 mg/L (≈ 1.33 µM); in experiment [6] it was 0.016 mg/L (≈ 0.0213 µM). Further, the log10cfu is reported as 6.7 in experiment [2]; 6.1 in experiment [3]; 5.1 in experiment [4]; 6.15 in experiment [5]; 6.01 in experiment [7].
